Results published in patent US4517196A, “Tricyclic thiazolyloxamic acids and their derivatives, their preparation, and therapeutic agents containing these compounds” (BASF Aktiengesellschaft, priority 1981, dated 1985).

System: passive cutaneous anaphylaxis
Experiment: antiallergic action, passive cutaneous anaphylaxis (PCA) in rats, oral
Type: in vivo, rat
Conditions: for ED50: Rattus norvegicus, read-out: Inhibition of PCA, ED 50%; for Inhibition of PCA, relative effectiveness: relative to comparative compound V1 (1.00); for times more effective than the comparative compound V1: administered orally
Protocol: The antiallergic action was tested against passive cutaneous anaphylaxis in rats.
Narcotized male rats (weighing from 100 to 140 g) are sensitized by administration of an intradermal injection (shaved skin) of 0.1 ml of an ovalbumin antiserum. After a sensitization period of about 48 hours, treatment is carried out by administering various dosages (10 animals/dose) of the test substances intraperitoneally or orally. 15 and 20 minutes after treatment, an anitgen/Evans blue mixture (10 mg/kg of ovalbumin in 2% strength Evans blue solution) is injected intravenously into the experimental animals. 30 minutes later, the animals are killed, and the back skin is peeled off and the diameter of the circular blue area on the inner surface is measured. The size of the colored spot in untreated control animals may be standardized. Antiallergic substances reduce the diameter of the colored spots, their reduction being dependent on the dose. The ED 50% is the dose which produces a 50% reduction in the diameter of the colored spot in comparison with control animals which have not been treated with the drug.

[1] = oral administration, rats, dose giving 50% reduction in diameter of colored spot vs untreated controls

Row | Compound | ED50 [1] [mg/kg] | Inhibition of PCA, relative effectiveness (oral administration, rats) | times more effective than the comparative compound V1 [times] | Inhibition of PCA, ED 50% [1] [mg/kg] | oral effectiveness in doses up to 100 mg/kg (oral, doses up to 100 mg/kg, commercial preparation Intal)
1 | CCOC(=O)C(=O)Nc1nc2c(s1)Cc1ccccc1-2 [Example 1, Ethyl N-(indeno[1,2-d]thiazol-2-yl)-oxamate] | 1.48 | 5.81 |  |  | 
2 | CCOC(=O)C(=O)Nc1nc2c(s1)C(=O)c1ccccc1-2 [Example 2, Ethyl N-(8-oxoindeno[1,2-d]thiazol-2-yl)-oxamate] | 1.95 | 4.41 | 4.4 |  | 
3 | O=C(O)C(=O)Nc1nc2c(s1)Cc1ccccc1-2 [Example 4, N-(Indeno[1,2-d]thiazol-2-yl)-oxamic acid] | 1.3 | 6.61 | 6.6 |  | 
4 | O=C(O)C(=O)Nc1nc2ccccc2s1 [Example V1, N-benzothiazol-2-yl oxamate, reference compound] |  | 1.00 |  | > 8.60 | 
5 | O=C(O)c1cc(=O)c2c(OCC(O)COc3cccc4oc(C(=O)O)cc(=O)c34)cccc2o1 [cromolyn, reference compound] | 100 |  |  |  | orally ineffective
